Source: ChEMBL document CHEMBL4627407, “Identification of a Potent Oridonin Analogue for Treatment of Triple-Negative Breast Cancer” (J Med Chem, 2020)
Calls of active or inactive are those of the source. No cut-off for these calls is given here.

How the values were obtained:
MDA-MB-231 [1] = test: Potency index, ratio of oridonin IC50 to compound IC50 for antiproliferative activity against human MDA-MB-231 cells after 72 hrs by MTT assay; assay type: functional
MDA-MB-468 [2] = test: Antiproliferative activity against human MDA-MB-468 cells after 72 hrs by MTT assay; assay type: functional, cell-based; conditions: MDA-MB-468, 72 h
MDA-MB-468 [3] = test: Potency index, ratio of oridonin IC50 to compound IC50 for antiproliferative activity against human MDA-MB-468 cells after 72 hrs by MTT assay; assay type: functional
MDA-MB-231 [4] = test: Antiproliferative activity against human MDA-MB-231 cells after 72 hrs by MTT assay; assay type: functional, cell-based; conditions: MDA-MB-231, 72 h
DU-4475 [5] = test: Antiproliferative activity against human DU4475 cells after 72 hrs by MTT assay; assay type: functional, cell-based; conditions: DU-4475, 72 h
HCC1806 [6] = test: Antiproliferative activity against human HCC1806 cells after 72 hrs by MTT assay; assay type: functional, cell-based; conditions: HCC1806, 72 h
DU-4475 [7] = test: Potency index, ratio of oridonin IC50 to compound IC50 for antiproliferative activity against human DU4475 cells after 72 hrs by MTT assay; assay type: functional
HCC1806 [8] = test: Potency index, ratio of oridonin IC50 to compound IC50 for antiproliferative activity against human HCC1806 cells after 72 hrs by MTT assay; assay type: functional
HCC1806 [9] = test: Antitumor activity against human HCC1806 cells in ICR mouse assessed as tumor shrinkage at 6 mg/kg, iv administered once per 2 days for 23 consecutive days by hematoxylin and eosin staining based histopathological assay; assay type: functional, organism-based
HCC1806 [10] = test: Antitumor activity against human HCC1806 cells in ICR mouse assessed as increase in apoptosis in tumor at 6 mg/kg, iv administered once per 2 days for 23 consecutive days by TUNEL based immunohistochemical analysis; assay type: functional, organism-based
[11] = Toxicity in ICR mouse assessed as reduction in body weight at 6 mg/kg, iv administered once per 2 days for 23 consecutive days and measured every 2 days; assay type: organism-based; conditions: in vivo, 48 h
HCC1806 [12] = test: Antitumor activity against human HCC1806 cells in ICR mouse assessed as reduction in tumor weight at 6 mg/kg, iv administered once per 2 days for 23 consecutive days and measured every 2 days relative to control; assay type: functional; design: scale not given: the % may be the effect or the level left
HCC1806 [13] = test: Antitumor activity against human HCC1806 cells harboring luciferase gene xenografted in ICR mouse assessed as shrunken tumor tissue at 6 mg/kg, iv administered once per 2 days for 21 consecutive days and measured once every week; assay type: functional, organism-based
HCC1806 [14] = test: Antitumor activity against human HCC1806 cells in ICR mouse assessed as tumor shrinkage at 6 mg/kg, iv administered once per 2 days for 23 consecutive days by TUNEL based immunohistochemical analysis; assay type: functional, organism-based
HCC1806 [15] = test: Antitumor activity against human HCC1806 cells in ICR mouse assessed as tumor shrinkage at 6 mg/kg, iv administered once per 2 days for 23 consecutive days by Ki67 staining-based immunohistochemical analysis; assay type: functional, organism-based
HCC1806 [16] = test: Antitumor activity against human HCC1806 cells in ICR mouse assessed as increase in apoptosis in tumor at 6 mg/kg, iv administered once per 2 days for 23 consecutive days by Ki67 staining-based immunohistochemical analysis; assay type: functional, organism-based
HCC1806 [17] = test: Antitumor activity against human HCC1806 cells in ICR mouse assessed as increase in apoptosis in tumor at 6 mg/kg, iv administered once per 2 days for 23 consecutive days by hematoxylin and eosin staining based histopathological assay; assay type: functional, organism-based
T47D = test: Antiproliferative activity against human T47D cells after 72 hrs by MTT assay; assay type: functional, cell-based
SK-BR-3 = test: Antiproliferative activity against human SK-BR-3 cells after 72 hrs by MTT assay; assay type: functional, cell-based; conditions: SK-BR-3, 72 h
MDA-MB-453 = test: Antiproliferative activity against human MDA-MB-453 cells after 72 hrs by MTT assay; assay type: functional, cell-based; conditions: MDA-MB-453, 72 h
HCC1937 = test: Antiproliferative activity against human HCC1937 cells after 72 hrs by MTT assay; assay type: functional, cell-based; conditions: HCC1937, 72 h
NCI/ADR-RES = test: Antiproliferative activity against human MCF7/ADR cells after 72 hrs by MTT assay; assay type: functional, cell-based

In the case of `C=C1C(=O)[C@]23[C@H](O)[C@H]1CC[C@H]2[C@]12C=CCC(C)(C)[C@H]1[C@H](O)[C@@]3(O)OC2`, the “Ratio IC50” value (MDA-MB-231 [1]) is reported as 6 - 12, the IC50 (MDA-MB-468 [2]) is reported as 1.44 µM and the “Ratio IC50” value (MDA-MB-468 [3]) is reported as 6 - 12. The IC50 (MDA-MB-231 [4]) was 2.33 µM, the IC50 (DU-4475 [5]) was 1.61 µM and the IC50 (HCC1806 [6]) was 2.35 µM. For the same compound, the “Ratio IC50” value (DU-4475 [7]) was 6 - 12 and the “Ratio IC50” value (HCC1806 [8]) was 6 - 12.

For `CC(=O)O[C@H]1C(=O)[C@@]2(C)[C@H]([C@H](OC(=O)c3ccccc3)[C@]3(O)C[C@H](OC(=O)[C@H](O)[C@@H](NC(=O)c4ccccc4)c4ccccc4)C(C)=C1C3(C)C)[C@]1(OC(C)=O)CO[C@@H]1C[C@@H]2O` [PACLITAXEL], the Activity (HCC1806 [9]) was “Active”, the Activity (HCC1806 [10]) was “Active” and the Activity [11] was “Toxic”. For the same compound, the Activity (HCC1806 [12]) was 66%, the Activity (HCC1806 [13]) was “Active” and the Activity (HCC1806 [14]) was “Active”. The Activity (HCC1806 [15]) was “Active”, the Activity (HCC1806 [16]) was “Active” and the Activity (HCC1806 [17]) was “Active”.

For `C=C1C(=O)[C@]23[C@H](O)[C@H]1CC[C@H]2[C@]12CCCC(C)(C)[C@H]1[C@H](O)[C@@]3(O)OC2`, the “Ratio IC50” value (MDA-MB-231 [1]) was 6 - 12, the IC50 (MDA-MB-468 [2]) was 2.24 µM and the “Ratio IC50” value (MDA-MB-468 [3]) was 6 - 12. For the same compound, the IC50 (MDA-MB-231 [4]) was 2.96 µM, the IC50 (DU-4475 [5]) was 2.36 µM and the IC50 (HCC1806 [6]) was 2.39 µM. For the same compound, the “Ratio IC50” value (DU-4475 [7]) was 6 - 12 and the “Ratio IC50” value (HCC1806 [8]) was 6 - 12.

With `C=C1C(=O)[C@]23[C@H](O)[C@H]1CC[C@H]2[C@@]12CO[C@]3(O)[C@@H](O)[C@@H]1C(C)(C)CC[C@@H]2O` [ORIDONIN] the IC50 (T47D) was 7.56 µM, the IC50 (MDA-MB-468 [2]) was 17.3 µM and the IC50 (MDA-MB-231 [4]) was 17.9 µM. The IC50 (DU-4475 [5]) was 16.9 µM, the IC50 (HCC1806 [6]) was 21.7 µM and the IC50 (SK-BR-3) was 8.49 µM. The IC50 (MDA-MB-453) was 6.67 µM, the IC50 (HCC1937) was 8.27 µM and the IC50 (NCI/ADR-RES) was 26.2 µM.

Work on `C=C1C(=O)[C@@]23C(=O)[C@@H]4OC[C@]5(C=CCC(C)(C)[C@@H]45)[C@@H]2CC[C@@H]1[C@H]3OC(=O)c1ccccn1` yielded an IC50 (MDA-MB-468 [2]) of 1.47 µM, an IC50 (MDA-MB-231 [4]) of 1.12 µM and an IC50 (DU-4475 [5]) of 0.78 µM. It also gave an IC50 (HCC1806 [6]) of 0.71 µM.

Work on `C=C1C(=O)[C@@]23C(=O)[C@@H]4OC[C@]5(C=CCC(C)(C)[C@@H]45)[C@@H]2CC[C@@H]1[C@H]3OC(=O)C1CC1` yielded an IC50 (MDA-MB-468 [2]) of 0.99 µM, an IC50 (MDA-MB-231 [4]) of 0.76 µM and an IC50 (DU-4475 [5]) of 1.06 µM. For the same compound, the IC50 (HCC1806 [6]) was 1.73 µM.
